Measured values published in patent US10214531B2 (Institute for Drug Discovery, LLC, priority 2013, dated 2019).
Counter-ions that a name gives are not always drawn.

Biological target: recombinant human AMCase (Homo sapiens, UniProt Q9BZP6)
Test: Human AMCase Activity Assay
Type: biochemical
Conditions: recombinant hAMCase, 4-methylumbelliferyl chitobioside substrate, citrate buffer pH 5.2, 37° C., 60 minutes; read-out: Activity (IC50 value key)
Procedure, shortened: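 Recombinant human enzyme with fluorogenic 4-methylumbelliferyl β-D-N,N′-diacetylchitobioside substrate in citrate buffer, pH 5.2, 60 min at 37 °C in the dark with shaking. Read-out is 4MU fluorescence at 460 nm.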

Chain of recombinant human AMCase (Q9BZP6 22-476): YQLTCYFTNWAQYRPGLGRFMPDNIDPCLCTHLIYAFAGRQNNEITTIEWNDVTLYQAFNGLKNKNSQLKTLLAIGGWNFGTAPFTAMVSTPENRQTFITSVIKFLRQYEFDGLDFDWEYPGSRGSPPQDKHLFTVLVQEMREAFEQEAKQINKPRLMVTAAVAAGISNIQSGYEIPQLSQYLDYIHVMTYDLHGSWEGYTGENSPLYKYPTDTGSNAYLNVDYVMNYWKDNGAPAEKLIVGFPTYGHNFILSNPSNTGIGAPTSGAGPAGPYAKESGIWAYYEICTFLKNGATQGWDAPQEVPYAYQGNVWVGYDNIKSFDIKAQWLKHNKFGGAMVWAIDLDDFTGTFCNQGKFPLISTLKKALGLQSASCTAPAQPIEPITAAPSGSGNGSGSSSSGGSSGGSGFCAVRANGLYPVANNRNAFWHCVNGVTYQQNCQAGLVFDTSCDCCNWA

| Structure (SMILES) | IC50 [µM] |
| --- | --- |
| Nc1n[nH]c(N2CCN(CCOc3c(Cl)cccc3Cl)CC2)n1 [Example 194, 5-(4-(2-(2,6-dichlorophenoxy)ethyl)piperazin-1-yl)-1H-1,2,4-triazol-3-amine] | 10 to 100 |
| Nc1n[nH]c(N2CCN(CCOc3ccccc3)CC2)n1 [Example 78, 5-(4-(2-phenoxyethyl)piperazin-1-yl)-1H-1,2,4-triazol-3-amine] | > 100 |
| CC(=O)OCCCC1CN(c2nc(N)n[nH]2)CCN1CCCc1ccc(Br)cc1 (stereo not drawn) [Example 224, 3-(4-(3-amino-1H-1,2,4-triazol-5-yl)-1-(3-(4-bromophenyl)propyl)piperazin-2-yl)propylacetate] | 0.1 to 1 |
| CC1CN(c2nc(N)n[nH]2)CCN1CCOc1ccc(Br)cc1 (stereo not drawn) [Example 26, 5-(4-(2-(4-bromophenoxy)ethyl)-3-methylpiperazin-1-yl)-1H-1,2,4-triazol-3-amine] | 1 to 10 |
| COc1ccccc1CCN(C)C1CCN(c2nc(N)n[nH]2)CC1 [Example 172, 1-(3-amino-1H-1,2,4-triazol-5-yl)-N-(2-methoxyphenethyl)-N-methylpiperidin-4-amine] | 10 to 100 |
| CN(CCc1ccccc1OC(F)(F)F)C1CCN(c2nc(N)n[nH]2)CC1 [Example 174, 1-(3-amino-1H-1,2,4-triazol-5-yl)-N-methyl-N-(2-(trifluoromethoxy)phenethyl)piperidin-4-amine] | 10 to 100 |
| CN(CCc1ccc(F)cc1)C1CCN(c2nc(N)n[nH]2)CC1 [Example 183, 1-(3-amino-1H-1,2,4-triazol-5-yl)-N-(4-fluorophenethyl)-N-methylpiperidin-4-amine] | 1 to 10 |
| CC(Cc1ccc(Cl)cc1)N(C)C1CCN(c2nc(N)n[nH]2)CC1 (stereo not drawn) [Example 141, 1-(3-amino-1H-1,2,4-triazol-5-yl)-N-(1-(4-chlorophenyl)propan-2-yl)-N-methylpiperidin-4-amine dihydrochloride] | 0.1 to 1 |
| Nc1n[nH]c(N2CCC(N(CCc3ccc(Cl)cc3)Cc3ccncc3F)CC2)n1 [Example 119, 1-(3-amino-1H-1,2,4-triazol-5-yl)-N-(4-chlorophenethyl)-N-((3-fluoropyridin-4-yl)methyl)piperidin-4-amine] | < 0.1 |
| Nc1n[nH]c(N2CCN(CCOc3ccccc3-c3ccccc3)CC2)n1 [Example 83, 5-(4-(2-([1,1′-biphenyl]-2-yloxy)ethyl)piperazin-1-yl)-1H-1,2,4-triazol-3-amine] | 10 to 100 |
| Nc1n[nH]c(N2CCC(NS(=O)(=O)Cc3cccc(C(F)(F)F)c3)CC2)n1 [Example 192, N-(1-(3-amino-1H-1,2,4-triazol-5-yl)piperidin-4-yl)-1-(3-(trifluoromethyl)phenyl)methanesulfonamide] | 1 to 10 |
| C[C@H](CN1CCN(c2nc(N)n[nH]2)CC1)Oc1ccc(Br)cc1 [Example 61, (R)-5-(4-(2-(4-bromophenoxy)propyl)piperazin-1-yl)-1H-1,2,4-triazol-3-amine] | 1 to 10 |
| Nc1n[nH]c(N2CCC(NS(=O)(=O)Cc3cc(Cl)cc(Cl)c3)CC2)n1 [Example 58, N-(1-(3-amino-1H-1,2,4-triazol-5-yl)piperidin-4-yl)-1-(3,5-dichlorophenyl)methanesulfonamide] | 1 to 10 |
| CC1CN(c2nc(N)n[nH]2)CCC1NCCc1ccc(Cl)cc1 (mixture of isomers) [Example 132, 1-(3-amino-1H-1,2,4-triazol-5-yl)-N-(4-chlorophenethyl)-3-methylpiperidin-4-amine dihydrochloride (4:1 diastereoisomeric mixture)] | 0.1 to 1 |
| C[C@H](Oc1ccc(Cl)cc1)C(=O)N1CCN(c2nc(N)n[nH]2)CC1 [Example 10, (S)-1-(4-(3-amino-1H-1,2,4-triazol-5-yl)piperazin-1-yl)-2-(4-chlorophenoxy)propan-1-one] | > 100 |
| Nc1n[nH]c(N2CCN(C(=O)OCc3ccccc3)CC2)n1 [Example 47, benzyl 4-(3-amino-1H-1,2,4-triazol-5-yl)piperazine-1-carboxylate] | > 100 |
| Nc1n[nH]c(N2CCC(N(CCc3ccc(Cl)cc3)Cc3ccccc3C(F)(F)F)CC2)n1 [Example 113, 1-(3-amino-1H-1,2,4-triazol-5-yl)-N-(4-chlorophenethyl)-N-(2-(trifluoromethyl)benzyl)piperidin-4-amine] | < 0.1 |
| Cn1nc(N)nc1N1CCN(CCOc2ccc(Br)cc2)CC1 [Example 27-2, 5-(4-(2-(4-bromophenoxy)ethyl)piperazin-1-yl)-1-methyl-1H-1,2,4-triazol-3-amine] | > 100 |
| CCC(CN1CCN(c2nc(N)n[nH]2)CC1)Oc1ccc(Cl)cc1 (stereo not drawn) [Example 63, 5-(4-(2-(4-chlorophenoxy)butyl)piperazin-1-yl)-1H-1,2,4-triazol-3-amine] | 10 to 100 |
| Nc1n[nH]c(N2CCC(N(CCc3ccc(Br)cc3)Cc3cccc4cnccc34)CC2)n1 [Example 168, 1-(3-amino-1H-1,2,4-triazol-5-yl)-N-(4-bromophenethyl)-N-(isoquinolin-5-ylmethyl)piperidin-4-amine] | < 0.1 |
| COc1ccc(CNC(=O)C2CCN(c3nc(N)n[nH]3)CC2)cc1 [Example 206, 1-(3-amino-1H-1,2,4-triazol-5-yl)-N-(4-methoxybenzyl)piperidine-4-carboxamide] | > 100 |
| COc1ccc(CCN(C)C2CCN(c3nc(N)n[nH]3)CC2)cc1OC [Example 173, 1-(3-amino-1H-1,2,4-triazol-5-yl)-N-(3,4-dimethoxyphenethyl)-N-methylpiperidin-4-amine] | 10 to 100 |
| Nc1n[nH]c(N2CCN(C(=O)COc3ccc4ccccc4c3)CC2)n1 [Example 25, 1-(4-(3-amino-1H-1,2,4-triazol-5-yl)piperazin-1-yl)-2-(naphthalen-2-yloxy) ethanone] | > 100 |
| Nc1n[nH]c(N2CCC(N(CCc3ccc(Cl)cc3)Cc3ccc(F)c4ccccc34)CC2)n1 [Example 144, 1-(3-amino-1H-1,2,4-triazol-5-yl)-N-(4-chlorophenethyl)-N-((4-fluoronaphthalen-1-yl)methyl)piperidin-4-amine] | < 0.1 |
